Laboratory results taken from US9422264B2, “Carbamate-substituted oxindole derivatives and use thereof for the treatment of vasopressin-dependent diseases” (AbbVie Deutschland GmbH & Co. KG, priority 2007, dated 2016).
pKi: −log10 of the molar value. Where a name gives a salt, the structure may show the parent alone.

How the values were obtained:
[1] = molecular target: T1, human vasopressin V1b receptor (Homo sapiens, UniProt P47901); experiment: Vasopressin V1b receptor binding assay; details: read-out: Ki(h-V1b)*
T1 construct: expressed in transfected cells; host or cells: CHO-K1 (cell line hV1b_3H2_CHO)
T1 sequence (P47901 1-424): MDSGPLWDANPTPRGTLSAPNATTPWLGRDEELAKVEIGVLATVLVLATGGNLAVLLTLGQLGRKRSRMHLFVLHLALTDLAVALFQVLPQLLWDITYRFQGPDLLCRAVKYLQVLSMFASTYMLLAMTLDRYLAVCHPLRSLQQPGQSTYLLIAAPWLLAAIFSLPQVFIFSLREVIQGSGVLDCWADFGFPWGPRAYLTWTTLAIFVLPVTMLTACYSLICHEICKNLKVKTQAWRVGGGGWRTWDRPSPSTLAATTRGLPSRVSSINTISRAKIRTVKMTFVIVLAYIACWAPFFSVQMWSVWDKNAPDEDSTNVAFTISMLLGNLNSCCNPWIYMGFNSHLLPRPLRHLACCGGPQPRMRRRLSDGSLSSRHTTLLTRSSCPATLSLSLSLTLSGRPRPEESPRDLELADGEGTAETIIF
Method: 1. Vasopressin V1b Receptor Binding Assay:
The substance concentration was further diluted 1:5 in the assay mixture (2% DMSO in the mixture).
All determinations were carried out as triplicate determinations.

[2] = molecular target: human vasopressin V1a receptor (Homo sapiens, UniProt P37288); experiment: Vasopressin V1a receptor binding assay; details: selectivity quotient, human V1a versus human V1b
human vasopressin V1a receptor, sequence (P37288 whole entry): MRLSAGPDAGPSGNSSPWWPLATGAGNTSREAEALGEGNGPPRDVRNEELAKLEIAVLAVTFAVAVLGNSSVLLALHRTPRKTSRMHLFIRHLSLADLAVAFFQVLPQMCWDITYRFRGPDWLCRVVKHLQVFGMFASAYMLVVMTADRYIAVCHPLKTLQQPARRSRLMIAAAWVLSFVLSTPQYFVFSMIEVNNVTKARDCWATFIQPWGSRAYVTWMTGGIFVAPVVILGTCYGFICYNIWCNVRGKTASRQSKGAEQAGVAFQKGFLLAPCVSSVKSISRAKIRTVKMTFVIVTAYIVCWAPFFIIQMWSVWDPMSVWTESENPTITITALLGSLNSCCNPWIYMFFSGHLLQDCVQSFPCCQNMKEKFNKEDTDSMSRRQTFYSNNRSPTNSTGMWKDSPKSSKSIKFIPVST

[3] = Determination of the microsomal half-life / microsomal clearance (human liver microsomes); type: in vitro ADME; details: pH 7.4, 0.5 μM test substance
Method: 5. Determination of the Microsomal Half-Life:
The metabolic stability of the compounds of the invention was determined in the following assay.
The test substances were incubated in a concentration of 0.5 μM as follows:
0.5 μM test substance are preincubated together with liver microsomes from different species (from rat, human or other species) (0.25 mg of microsomal protein/ml) in 0.05 M potassium phosphate buffer of pH 7.4 in microtiter plates at 37° C. for 5 min. The reaction is started by adding NADPH (1 mg/mL). After 0, 5, 10, 15, 20 and 30 min, 50 μl aliquots are removed, and the reaction is immediately stopped and cooled with the same volume of acetonitrile. The samples are frozen until analyzed. The remaining concentration of undegraded test substance is determined by MSMS. The half-life (T½) is determined from the gradient of the signal of test substance/unit time plot, it being possible to calculate the half-life of the test substance, assuming first order kinetics, from the decrease in the concentration of the compound with time. The microsomal clearance (mCl) is calculated from mCl=In2/T½/(content of microsomal protein in mg/ml)×1000 […] (modified from references: Di, The Society for Biomoleculur Screening, 2003, 453-462; Obach, DMD, 1999 vol. 27. N 11, 1350-1359).

[4] = molecular target: T2, recombinant human oxytocin receptors (Homo sapiens, UniProt P30559); experiment: Oxytocin receptor binding assay; details: selectivity quotient, human OT versus human V1b
T2 construct: expressed in transfected cells; host or cells: HEK-293 (transient)
T2 sequence (P30559 1-389): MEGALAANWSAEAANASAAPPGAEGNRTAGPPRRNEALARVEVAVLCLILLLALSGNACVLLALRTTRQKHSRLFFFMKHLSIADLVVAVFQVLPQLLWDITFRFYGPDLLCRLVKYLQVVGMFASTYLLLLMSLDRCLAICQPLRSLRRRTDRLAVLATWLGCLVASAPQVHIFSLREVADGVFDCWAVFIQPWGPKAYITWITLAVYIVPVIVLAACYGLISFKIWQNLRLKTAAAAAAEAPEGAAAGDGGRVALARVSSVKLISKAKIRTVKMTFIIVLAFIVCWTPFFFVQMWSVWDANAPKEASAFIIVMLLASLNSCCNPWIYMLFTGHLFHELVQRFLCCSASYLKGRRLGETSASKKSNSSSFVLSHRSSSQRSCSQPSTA
Method: 4. Oxytocin Receptor Binding Assay
Confluent HEK-293 cells with transiently expressing recombinant human oxytocin receptors were centrifuged at 750×g at room temperature for 5 minutes. The residue was taken up in ice-cold lysis buffer (50 mM Tris-HCl, 10% glycerol, pH 7.4 and Roche complete protease inhibitor) and subjected to an osmotic shock at 4° C. for 20 minutes. The lyzed cells were then centrifuged at 750×g at 4° C. for 20 minutes, the residue was taken up in incubation buffer, and aliquots of 10^7 cells/ml were prepared. The aliquots were frozen at −80° C. until used.
On the day of the experiment, the cells were thawed, diluted with incubation buffer and homogenized using a Multipette Combitip (Eppendorf, Hamburg). […] The nonspecific binding was determined with 10^−6 M oxytocin (Bachem AG, H2510). Triplicate determinations were set up. Bound and free radioligand were separated by filtration under vacuum with Whatman GF/B glass fiber filters with the aid of a Skatron cell harvester 7000. The bound radioactivity was determined by liquid scintillation measurement in a Tricarb Beta counter, model 2000 or 2200CA (Packard).

| SMILES | pKi [1] | Ki(h-V1a)/Ki(h-V1b)* [2] | microsomal CLint at 0.5 μM [3] [µL/min/mg] | Ki(h-OT)/Ki(h-V1b)* [4] |
| --- | --- | --- | --- | --- |
| CCOc1ncccc1C1(OC(=O)N2CCN(C3CCN(C)CC3)CC2)C(=O)N(S(=O)(=O)c2ccccc2)c2ccc(C#N)cc21 (single isomer, unassigned; (-)) [Example 4B, (−)-5-Cyano-3-(2-ethoxypyridin-3-yl)-2-oxo-1-(phenylsulfonyl)-2,3-dihydro-1H-indol-3-yl 4-(1-methylpiperidin-4-yl)piperazine-1-carboxylate] | > 8.00 | +++ (>75) | < 50 | +++ (>45) |
| CCOc1ncccc1C1(OC(=O)N2CCC(N3CCNCC3)CC2)C(=O)N(S(=O)(=O)c2ccc(OC)cc2OC)c2ccc(C#N)cc21 (centres unmarked) [Example 55, 5-Cyano-1-[(2,4-dimethoxyphenyl)sulfonyl]-3-(2-ethoxypyridin-3-yl)-2-oxo-2,3-dihydro-1H-indol-3-yl-4-piperazin-1-ylpiperidine-1-carboxylate as bis(trifluoroacetic acid) salt] | > 8.00 | ++ (>25-75) | 75 to 200 | + (15-25) |
